What was measured:
blackgrass = experiment: Test B preemergence/postemergence greenhouse plant response rating 0 to 10; type: in vivo, Alopecurus myosuroides; settings: for Plant response rating, Blackgrass: 0 to 10 scale
In short: (§1)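 Test chemicals were sprayed onto freshly planted seed and, concurrently, onto young plants between the one and four leaf stage. After a twelve- to sixteen-day greenhouse period, each species was visually compared with untreated controls.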

wheat [1] = experiment: Test C preemergence/postemergence greenhouse plant response rating 0 to 100; type: in vivo, Triticum aestivum; settings: POSTEMERGENCE
In short: (§2)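 Compounds in non-phytotoxic solvent applied preemergence to sandy loam one day after planting, postemergence at the 1–4 leaf stage, or to ~2.5 cm floodwater over silt loam.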

ryegrass = experiment: as above; type: in vivo, Lolium multiflorum; settings: POSTEMERGENCE
In short: as §2

rape = experiment: as above; type: in vivo, Brassica napus; settings: POSTEMERGENCE
In short: as §2

barley = experiment: Test B preemergence/postemergence greenhouse plant response rating 0 to 10; type: in vivo, Hordeum vulgare; settings: for Plant response rating, Barley: 0 to 10 scale
In short: as §1

wild oat [2] = experiment: as above; type: in vivo, Avena fatua; settings: POSTEMERGENCE, 0 to 10 scale
In short: as §1

sorghum [3] = experiment: Test C preemergence/postemergence greenhouse plant response rating 0 to 100; type: in vivo, Sorghum bicolor; settings: POSTEMERGENCE
In short: as §2

cotton = experiment: Test B preemergence/postemergence greenhouse plant response rating 0 to 10; type: in vivo, Gossypium hirsutum; settings: for Plant response rating, Cotton: 0 to 10 scale
In short: as §1

wild buckwheat = experiment: Test C preemergence/postemergence greenhouse plant response rating 0 to 100; type: in vivo, Polygonum convolvulus; settings: POSTEMERGENCE
In short: as §2

bedstraw = experiment: Test B preemergence/postemergence greenhouse plant response rating 0 to 10; type: in vivo, Galium aparine; settings: POSTEMERGENCE
In short: as §1

sugar beet = experiment: as above; type: in vivo, Beta vulgaris; settings: 0 to 10 scale
In short: as §1

wheat [4] = experiment: as above; type: in vivo, Triticum aestivum; settings: 0 to 10 scale
In short: as §1

crabgrass = experiment: Test C preemergence/postemergence greenhouse plant response rating 0 to 100; type: in vivo, Digitaria sanguinalis; settings: POSTEMERGENCE
In short: as §2

sorghum [5] = experiment: Test B preemergence/postemergence greenhouse plant response rating 0 to 10; type: in vivo, Sorghum bicolor; settings: 0 to 10 scale
In short: as §1

downy brome = experiment: Test C preemergence/postemergence greenhouse plant response rating 0 to 100; type: in vivo, Bromus tectorum; settings: POSTEMERGENCE
In short: as §2

barnyardgrass = experiment: Test C flood test plant response rating 0 to 100; type: in vivo, Echinochloa crus-galli
In short: as §2

wild oat [6] = experiment: Test C preemergence/postemergence greenhouse plant response rating 0 to 100; type: in vivo, Avena fatua; settings: POSTEMERGENCE
In short: as §2

lambsquarters = experiment: Test B preemergence/postemergence greenhouse plant response rating 0 to 10; type: in vivo, Chenopodium album; settings: 0 to 10 scale
In short: as §1

## CCCN1C(=O)COc2cc(F)c(-c3nn4c(c3Cl)CCCC4)cc21 [Compound 32]
blackgrass; POSTEMERGENCE, Rate 10 g/ha
  Plant response rating, Blackgrass: 4
blackgrass; POSTEMERGENCE, Rate 50 g/ha
  Plant response rating (0 to 10 scale), Blackgrass: 5
blackgrass; PREEMERGENCE, Rate 10 g/ha
  Plant response rating, Blackgrass: 5
blackgrass; PREEMERGENCE, Rate 50 g/ha
  Plant response rating, Blackgrass: 5
Wheat [1]; 62 g/ha, 0 to 100 scale
  Plant response rating, Wheat: 50
Wheat [1]; Rate 1 g/ha
  Plant response rating (0 to 100), Wheat: 10
Wheat [1]; Rate 4 g/ha
  Plant response rating (0 to 100), Wheat: 30
Wheat [1]; Rate 16 g/ha
  Plant response rating (0 to 100), Wheat: 30
ryegrass; 62 g/ha, 0 to 100 scale
  Plant response rating Ryegrass: 40
ryegrass; Rate 1 g/ha
  Plant response rating (0 to 100), Ryegrass: 10
ryegrass; Rate 4 g/ha
  Plant response rating (0 to 100), Ryegrass: 20
ryegrass; Rate 16 g/ha
  Plant response rating (0 to 100), Ryegrass: 30
rape; 62 g/ha, 0 to 100 scale
  Plant response rating, Rape: 100
rape; Rate 1 g/ha
  Plant response rating (0 to 100), Rape: 60
rape; Rate 4 g/ha
  Plant response rating (0 to 100), Rape: 85
rape; Rate 16 g/ha
  Plant response rating (0 to 100), Rape: 95
barley; POSTEMERGENCE, Rate 10 g/ha
  Plant response rating, Barley: 5
barley; POSTEMERGENCE, Rate 50 g/ha
  Plant response rating (0 to 10 scale), Barley: 5
barley; PREEMERGENCE, Rate 10 g/ha
  Plant response rating, Barley: 0
barley; PREEMERGENCE, Rate 50 g/ha
  Plant response rating, Barley: 0
Wild oat [2]; Rate 10 g/ha
  Plant response rating, Wild oat: 4
Wild oat [2]; Rate 50 g/ha
  Plant response rating, Wild oat: 4
Sorghum [3]; 62 g/ha, 0 to 100 scale
  Plant response rating, Sorghum: 60
Sorghum [3]; Rate 1 g/ha
  Plant response rating (0 to 100), Sorghum: 30
Sorghum [3]; Rate 4 g/ha
  Plant response rating (0 to 100), Sorghum: 40
Sorghum [3]; Rate 16 g/ha
  Plant response rating (0 to 100), Sorghum: 50
cotton; POSTEMERGENCE, Rate 10 g/ha
  Plant response rating, Cotton: 10
cotton; POSTEMERGENCE, Rate 50 g/ha
  Plant response rating (0 to 10 scale), Cotton: 10
cotton; PREEMERGENCE, Rate 10 g/ha
  Plant response rating, Cotton: 0
cotton; PREEMERGENCE, Rate 50 g/ha
  Plant response rating, Cotton: 8
Wild buckwheat; 62 g/ha, 0 to 100 scale
  Plant response rating, Wild buckwheat: 95
Wild buckwheat; Rate 1 g/ha
  Plant response rating (0 to 100), Wild buckwheat: 30
Wild buckwheat; Rate 4 g/ha
  Plant response rating (0 to 100), Wild buckwheat: 60
Wild buckwheat; Rate 16 g/ha
  Plant response rating (0 to 100), Wild buckwheat: 90
bedstraw; Rate 10 g/ha, 0 to 10 scale
  Plant response rating, Bedstraw: 8
bedstraw; Rate 50 g/ha
  Plant response rating (0 to 10 scale), Bedstraw: 10
Sugar beet; POSTEMERGENCE, Rate 10 g/ha
  Plant response rating, Sugar beet: 10
Sugar beet; POSTEMERGENCE, Rate 50 g/ha
  Plant response rating, Sugar beet: 10
Sugar beet; PREEMERGENCE, Rate 50 g/ha
  Plant response rating, Sugar beet: 7
Wheat [4]; POSTEMERGENCE, Rate 10 g/ha
  Plant response rating, Wheat: 5
Wheat [4]; POSTEMERGENCE, Rate 50 g/ha
  Plant response rating, Wheat: 5
Wheat [4]; PREEMERGENCE, Rate 50 g/ha
  Plant response rating, Wheat: 0
crabgrass; 62 g/ha, 0 to 100 scale
  Plant response rating, Crabgrass: 40
crabgrass; Rate 1 g/ha
  Plant response rating (0 to 100), Crabgrass: 10
crabgrass; Rate 4 g/ha
  Plant response rating (0 to 100), Crabgrass: 20
crabgrass; Rate 16 g/ha
  Plant response rating (0 to 100), Crabgrass: 30
Sorghum [5]; POSTEMERGENCE, Rate 10 g/ha
  Plant response rating, Sorghum: 6
Sorghum [5]; POSTEMERGENCE, Rate 50 g/ha
  Plant response rating, Sorghum: 6
Sorghum [5]; PREEMERGENCE, Rate 50 g/ha
  Plant response rating, Sorghum: 2
Downy brome; 62 g/ha, 0 to 100 scale
  Plant response rating Downy Brome: 50
Downy brome; Rate 1 g/ha
  Plant response rating (0 to 100), Downy Brome: 20
Downy brome; Rate 4 g/ha
  Plant response rating (0 to 100), Downy Brome: 30
Downy brome; Rate 16 g/ha
  Plant response rating (0 to 100), Downy Brome: 40
barnyardgrass; POSTEMERGENCE section, flood test, Rate 1 g/ha
  Plant response rating (0 to 100), Barnyardgrass: 30
barnyardgrass; Rate 4 g/ha, under POSTEMERGENCE head (flood test species)
  Plant response rating (0 to 100), Barnyardgrass: 55
barnyardgrass; Rate 16 g/ha, under POSTEMERGENCE head (flood test species)
  Plant response rating (0 to 100), Barnyardgrass: 100
barnyardgrass; flood test species listed under POSTEMERGENCE, 62 g/ha, 0 to 100 scale
  Plant response rating, Barnyardgrass: 100
Wild oat [6]; 62 g/ha, 0 to 100 scale
  Plant response rating, Wild oat: 50
Wild oat [6]; Rate 1 g/ha
  Plant response rating (0 to 100), Wild oat: 20
Wild oat [6]; Rate 4 g/ha
  Plant response rating (0 to 100), Wild oat: 30
Wild oat [6]; Rate 16 g/ha
  Plant response rating (0 to 100), Wild oat: 30
lambsquarters; POSTEMERGENCE, Rate 10 g/ha
  Plant response rating, Lambsquarter: 10
lambsquarters; POSTEMERGENCE, Rate 50 g/ha
  Plant response rating, Lambsquarter: 10
lambsquarters; PREEMERGENCE, Rate 50 g/ha
  Plant response rating, Lambsquarter: 10

— patent US6358885B1, “Substituted phenylheterocyclic herbicides” (Mississippi State University, priority 1992, dated 2002)
